In US20170368034A1, “THIOTRIAZOLE COMPOUND AND ITS USE IN PARASITIC PROTOZOAL INFECTIONS” (GlaxoSmithKline Intellectual Property Development Limited, priority 2014, published 2017):
Converted amounts (≈) assume the structure as drawn. Like-named read-outs stand apart in the source and are kept apart here. Values belong to the molecule of their own block, whether it stands above or below them.

Assays:
[1] = p698 and Table 2 p699; cited from earlier work
[2] = tested on: P. falciparum infected erythrocytes; assay: P. falciparum growth inhibition assay ([3H]hypoxanthine incorporation); type: cell-based; details: Plasmodium falciparum, Erythrocyte, 0.5% parasitemia (ring stage), 2% hematocrit, 48 h total incubation, read-out: PflC50
Experimental: P. falciparum Growth Inhibition Assay. The sensitivity of P. falciparum infected erythrocytes to the compound is determined in triplicate using the [^3H]hypoxanthine incorporation method with an inoculum of 0.5% parasitemia (ring stage) and 2% hematocrit. The parasites were grown in RPMI 1640, 25 mM HEPES and supplemented with […]. Plates are incubated at 37° C., 5% CO2, 5% O2, 90% N2. After 24 h of incubation, [3H]hypoxanthine is added and plates are incubated for another 24 h. After that period, plates are harvested on a glass fiber filter using a TOMTEC Cell harvester 96. Filters are dried and melt on scintillator sheets and the bound radioactivity is quantified by use of a Wallac Microbeta Trilux (Model 1450 LS-Perkin Elmer). IC50s are determined using Grafit 5 program (Grafit program; Erithacus Software, Horley, Surrey, United Kingdom).

P. falciparum = P. falciparum in vivo efficacy assay (P. falciparum mouse model); design: species or system Plasmodium falciparum; details: for AUCED90: area under the concentration-time curve at ED90, P. falciparum mouse model; for ED90: dose that eradicates 90 per cent of parasitemia, NOD-scid IL2R_null mice engrafted with human erythrocytes
Experimental: P. Falciparum In Vivo Efficacy Assay.
Antimalarial in vivo efficacy was determined using the P. falciparum mouse model following the procedure described in: Jimenez-Diaz, M. B., Mulet, T., Viera, S., Gómez, V., Garuti, H., Ibañez, J., Alvarez-Doval, A., Shlutz, D. L., Martinez, A., Improved Murine Model Of Malaria Using Plasmodium falciparum (Competent Strains and Non-Myelodepleted NOD-scid IL2R_null
Mice Engrafted with Human Erythrocytes) Antimicrob. Agents Chemother 2009, 53 (10), 4533-4536

[3] = Equilibrium solubility assessment in biorelevant media; type: physicochemical; details: thermodynamic from solid, room temperature
Experimental: Compound's equilibrium solubility was measured at 4 h room temperature in four biologically relevant fluids: Fasted State-(Simulated Intestinal Fluid (FaSSIF), Fed State Simulated IntestinalFluid (FeSSIF), Simulated Gastric Fluid (SGF) and Phosphate Buffered Saline (PBS).
Organic solvents of HPLC grade were used. Ultra pure water (Milli-Q grade) was used. Buffers were prepared with ultra pure water and filtered using 0.45 μ nylon filters.
Determination of equilibrium solubility (assuming chemical stability in the desired solvent is not a problem).
a) 1 mg of solid compound was weighted in one 4 mL glass vial and 1 mL of the corresponding medium freshly prepared (SGF, FaSSIF, FeSSIF or PBS) was added. All these samples were prepared by duplicate.
b) The samples were stirred (roller mixer) for 4 hr at room temperature. If required, additional solid compound (0.1 mg) was added to maintain excess of it (saturated solutions).
c) After 4 hours, the samples were centrifuged (10000 rpm, 10 min.) and the supernatants were transfer to an HPLC vial and analysed by LC-MS (previous dilution with mobile phase when needed).
d) The pH of the final solution in each sample was measured with a pH-meter (WTW pH330i and a pH-electrode Sentix 41).
All supernatants were analysed by LC-MS. Quantification of those samples was carried out against calibration curves obtained from 1 mg/mL DMSO (Aldrich cat. ref.: 27685-5) stock solutions, by dilution with the mobile phase used in the chromatography. Depending on the solubility range, U.V. (1 μg/mL to 100 μg/mL) or MS (1 μg/mL to 1 ng/mL) detector were used in the quantification.
The analysis of all LC-MS data was performed with MassLynx 3.4 software and Analyst 1.4.2. Statistical and graphic analysis of data was performed using Microsoft Excel. The concentration (μM) and solubility (μg/ml) for each compound was calculated using the peak areas from the sample and those from the calibration curve.

[4] = FaSSIF (fasted state simulated intestinal fluid), fassif, Fasted state simulated intestinal fluid, read-out: FaSSIF solubility
[5] = FeSSIF (fed state simulated intestinal fluid), fessif, Fed state simulated intestinal fluid, read-out: FeSSIF solubility
[6] = PBS (phosphate buffered saline), aqueous buffer, Phosphate buffered saline, read-out: PBS solubility
[7] = SGF (simulated gastric fluid), Simulated gastric fluid, read-out: SGF solubility

Structure (SMILES): O=C(CSc1nc(-c2ccncc2)n[nH]1)c1c[nH]c2ccccc12 [Compound 32]
- activity in the assays of Shah et al. [1]: inactive

Structure (SMILES): C[C@@H](Sc1nc(-c2c(Cl)cncc2Cl)n[nH]1)C(=O)c1c[nH]c2ccccc12 [drawing 21]
- IC50 [2]: 19 to 53 nM

Structure (SMILES): Cc1[nH]c2ccccc2c1C(=O)C(C)Sc1nnc(-c2ccccc2Br)[nH]1 (stereo not drawn) [drawing 22]
- AUCED90 (P. falciparum): < 0.05 μg.h.ml-1day-1
- ED90 (P. falciparum): 7.31 mg/kg

Structure (SMILES): C[C@@H](Sc1nc(-c2c(Cl)cncc2Cl)n[nH]1)C(=O)c1c[nH]c2ccccc12 [drawing 24]
- AUCED90 (P. falciparum): 0.17 μg.h.ml-1day-1
- ED90 (P. falciparum): 2.2 mg/kg

Structure (SMILES): CC(Sc1nc(-c2c(Cl)cncc2Cl)n[nH]1)C(=O)c1c[nH]c2ccccc12 (stereo not drawn) [drawing 26]
- solubility at 4 h [3, 4]: 168 µg/mL (≈ 402 µM)

More lines, now with the values ahead:

- IC50 [2]: > 5000 nM
Structure (SMILES): O=C(CSc1nc(-c2ccncc2)n[nH]1)c1c[nH]c2ccccc12 [drawing 18]

- IC50 [2]: 44 to 60 nM
Structure (SMILES): Cc1[nH]c2ccccc2c1C(=O)C(C)Sc1nnc(-c2ccccc2Br)[nH]1 (stereo not drawn) [drawing 19]

- IC50 [2]: 52 nM
Structure (SMILES): CC(Sc1nc(-c2c(Cl)cncc2Cl)n[nH]1)C(=O)c1c[nH]c2ccccc12 (stereo not drawn) [drawing 20]

- solubility at 4 h [3, 4]: 37 µg/mL (≈ 83.8 µM)
- solubility at 4 h [3, 5]: 181 µg/mL (≈ 410 µM)
- solubility at 4 h [3, 6]: < 0.1 µg/mL
- solubility at 4 h [3, 7]: < 0.1 µg/mL
Structure (SMILES): Cc1[nH]c2ccccc2c1C(=O)C(C)Sc1nnc(-c2ccccc2Br)[nH]1 (stereo not drawn) [drawing 25]

- solubility at 4 h [3, 4]: 216 µg/mL (≈ 516 µM)
- solubility at 4 h [3, 5]: 578 to 675 µg/mL (≈ 1380 to 1610 µM)
- solubility at 4 h [3, 6]: 169 to 289 µg/mL (≈ 404 to 691 µM)
- solubility at 4 h [3, 7]: 15 to 76 µg/mL (≈ 35.9 to 182 µM)
Structure (SMILES): C[C@@H](Sc1nc(-c2c(Cl)cncc2Cl)n[nH]1)C(=O)c1c[nH]c2ccccc12 [drawing 27]
